Literature values as cited in patent US9586989B1, “Non-toxic skin cancer therapy with copper peptides” (Skin Biology, Inc., priority 2011, dated 2017).

Legend:
[1] = system: 54 human genes overexpressed in patients with aggressive metastatic form of colon cancer; conditions: for concentration that produced downregulation of "metastatic" genes: Connectivity Map perturbagen search
Ehrlich ascites cells = conditions: injection for 12 days; mixture of 8 micrograms ascorbic acid and 8 micrograms copper 2+ complex

Compound	concentration that produced downregulation of "metastatic" genes [1] [µM]	share of genes in which RNA production was suppressed ([1]; of 54 human genes overexpressed in aggressive metastatic colon cancer, GHK without copper 2+) [%]	share of mice that lived for a long time and resisted re-establishment of tumor cells (Ehrlich ascites cells) [%]	share of mice with prolonged life span (Ehrlich ascites cells) [%]
O=C1C=C2C=C[C@@H]3C[C@@]2(O1)[C@H]1CCCCN31 [securinine]	18	–	–	–
Gly-L-His-L-Lys [GHK]	1	70	–	–
copper 2+ complexed to Glycyl-Glycyl-L-Histidine	–	–	40	60
